Starred links: 1 amine or outer side, 2 acyl side, 3 side chain; linkers in the order of their positions; H or OH if unused. Positions of bridges follow the written chain, without caps; N, C: chain ends. Non-standard residues stand in square brackets, D forms with d. Residues, ends and D or L forms follow the SMILES beside them. Chains are numbered I, II in the order given. Actinocin(1to9) = Cc1c2oc3c(C)ccc(C(=O)[*:2])c3nc-2c(C(=O)[*:1])c(N)c1=O; NMeV = CN[C@H](C(=O)O)C(C)C; Sar = CNCC(=O)O
Key:
Assay type in all cases: cell-based
[1] = Inhibition of PAX3-FOXO1 (unknown origin) stably transfected Rh4 cells co-expressing ALK-Luc after 24 hrs by SteadyLite luciferase assay; details: Homo sapiens, Rh4, 24 h
[2] = Inhibition of PAX3-FOXO1 (unknown origin) stably transfected Rh4 cells co-expressing CMV-Luc after 24 hrs by SteadyLite luciferase assay; details: Homo sapiens, Rh4, 24 h
[3] = Cytotoxicity against human Rh4 cells assessed as reduction in cell viability >=20 uM

Structure (SMILES) | IC50 [1] [µM] | IC50 [2] [µM] | Activity [3]
Cc1c2oc3c(C)ccc(C(=O)N[C@@H]4C(=O)N[C@H](C(C)C)C(=O)N5CCC[C@H]5C(=O)N(C)CC(=O)N(C)[C@@H](C(C)C)C(=O)O[C@@H]4C)c3nc-2c(C(=O)N[C@@H]2C(=O)N[C@H](C(C)C)C(=O)N3CCC[C@H]3C(=O)N(C)CC(=O)N(C)[C@@H](C(C)C)C(=O)O[C@@H]2C)c(N)c1=O [DACTINOMYCIN] (I: T[dV]P[Sar][NMeV] / II: T[dV]P[Sar][NMeV]; ester I:1-I:C, II:1-II:C; linker I:N-II:N via Actinocin(1to9)) | 0.001 | 0.001 | 
O=C1C(c2ccc(O)cc2)=C2C(=C(c3ccc(O)cc3)C(=O)N2CCc2ccc(O)cc2)c2c1[nH]c1c(O)cccc21 | 13 | 13 | Toxic
